Like-named read-outs stand apart in the source and are kept apart here.
Target: T1, LRRK2 (endogenous, HiBit tagged) (Homo sapiens, UniProt Q5S007)
T1 construct: endogenous in cells; host or cells: HEK293 cells with HiBit knock-in at the endogenous LRRK2 locus, stably expressing firefly luciferase
Assay: Endogenous LRRK2 degradation assay, endogenous gene C-terminally HiBit-tagged in HEK293 cells (Nano-Glo Dual Luciferase)
Format: cell-based
Settings: endogenous HiBit-tagged LRRK2 in HEK293 cells, 24 hours treatment
Summary of the method: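 LRRK2-HiBit quantified via Nano-Glo Dual Luciferase in HEK293 knock-in cells co-expressing firefly luciferase, after 24 h exposure to compound (1 μM final top, 1:3, 11 points). Values normalised to DMSO median per plate and curve-fitted; Alamar Blue viability run alongside.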

[1] = read-out: **Endogenous WT Dmax (%)

T1 sequence (Q5S007 whole entry): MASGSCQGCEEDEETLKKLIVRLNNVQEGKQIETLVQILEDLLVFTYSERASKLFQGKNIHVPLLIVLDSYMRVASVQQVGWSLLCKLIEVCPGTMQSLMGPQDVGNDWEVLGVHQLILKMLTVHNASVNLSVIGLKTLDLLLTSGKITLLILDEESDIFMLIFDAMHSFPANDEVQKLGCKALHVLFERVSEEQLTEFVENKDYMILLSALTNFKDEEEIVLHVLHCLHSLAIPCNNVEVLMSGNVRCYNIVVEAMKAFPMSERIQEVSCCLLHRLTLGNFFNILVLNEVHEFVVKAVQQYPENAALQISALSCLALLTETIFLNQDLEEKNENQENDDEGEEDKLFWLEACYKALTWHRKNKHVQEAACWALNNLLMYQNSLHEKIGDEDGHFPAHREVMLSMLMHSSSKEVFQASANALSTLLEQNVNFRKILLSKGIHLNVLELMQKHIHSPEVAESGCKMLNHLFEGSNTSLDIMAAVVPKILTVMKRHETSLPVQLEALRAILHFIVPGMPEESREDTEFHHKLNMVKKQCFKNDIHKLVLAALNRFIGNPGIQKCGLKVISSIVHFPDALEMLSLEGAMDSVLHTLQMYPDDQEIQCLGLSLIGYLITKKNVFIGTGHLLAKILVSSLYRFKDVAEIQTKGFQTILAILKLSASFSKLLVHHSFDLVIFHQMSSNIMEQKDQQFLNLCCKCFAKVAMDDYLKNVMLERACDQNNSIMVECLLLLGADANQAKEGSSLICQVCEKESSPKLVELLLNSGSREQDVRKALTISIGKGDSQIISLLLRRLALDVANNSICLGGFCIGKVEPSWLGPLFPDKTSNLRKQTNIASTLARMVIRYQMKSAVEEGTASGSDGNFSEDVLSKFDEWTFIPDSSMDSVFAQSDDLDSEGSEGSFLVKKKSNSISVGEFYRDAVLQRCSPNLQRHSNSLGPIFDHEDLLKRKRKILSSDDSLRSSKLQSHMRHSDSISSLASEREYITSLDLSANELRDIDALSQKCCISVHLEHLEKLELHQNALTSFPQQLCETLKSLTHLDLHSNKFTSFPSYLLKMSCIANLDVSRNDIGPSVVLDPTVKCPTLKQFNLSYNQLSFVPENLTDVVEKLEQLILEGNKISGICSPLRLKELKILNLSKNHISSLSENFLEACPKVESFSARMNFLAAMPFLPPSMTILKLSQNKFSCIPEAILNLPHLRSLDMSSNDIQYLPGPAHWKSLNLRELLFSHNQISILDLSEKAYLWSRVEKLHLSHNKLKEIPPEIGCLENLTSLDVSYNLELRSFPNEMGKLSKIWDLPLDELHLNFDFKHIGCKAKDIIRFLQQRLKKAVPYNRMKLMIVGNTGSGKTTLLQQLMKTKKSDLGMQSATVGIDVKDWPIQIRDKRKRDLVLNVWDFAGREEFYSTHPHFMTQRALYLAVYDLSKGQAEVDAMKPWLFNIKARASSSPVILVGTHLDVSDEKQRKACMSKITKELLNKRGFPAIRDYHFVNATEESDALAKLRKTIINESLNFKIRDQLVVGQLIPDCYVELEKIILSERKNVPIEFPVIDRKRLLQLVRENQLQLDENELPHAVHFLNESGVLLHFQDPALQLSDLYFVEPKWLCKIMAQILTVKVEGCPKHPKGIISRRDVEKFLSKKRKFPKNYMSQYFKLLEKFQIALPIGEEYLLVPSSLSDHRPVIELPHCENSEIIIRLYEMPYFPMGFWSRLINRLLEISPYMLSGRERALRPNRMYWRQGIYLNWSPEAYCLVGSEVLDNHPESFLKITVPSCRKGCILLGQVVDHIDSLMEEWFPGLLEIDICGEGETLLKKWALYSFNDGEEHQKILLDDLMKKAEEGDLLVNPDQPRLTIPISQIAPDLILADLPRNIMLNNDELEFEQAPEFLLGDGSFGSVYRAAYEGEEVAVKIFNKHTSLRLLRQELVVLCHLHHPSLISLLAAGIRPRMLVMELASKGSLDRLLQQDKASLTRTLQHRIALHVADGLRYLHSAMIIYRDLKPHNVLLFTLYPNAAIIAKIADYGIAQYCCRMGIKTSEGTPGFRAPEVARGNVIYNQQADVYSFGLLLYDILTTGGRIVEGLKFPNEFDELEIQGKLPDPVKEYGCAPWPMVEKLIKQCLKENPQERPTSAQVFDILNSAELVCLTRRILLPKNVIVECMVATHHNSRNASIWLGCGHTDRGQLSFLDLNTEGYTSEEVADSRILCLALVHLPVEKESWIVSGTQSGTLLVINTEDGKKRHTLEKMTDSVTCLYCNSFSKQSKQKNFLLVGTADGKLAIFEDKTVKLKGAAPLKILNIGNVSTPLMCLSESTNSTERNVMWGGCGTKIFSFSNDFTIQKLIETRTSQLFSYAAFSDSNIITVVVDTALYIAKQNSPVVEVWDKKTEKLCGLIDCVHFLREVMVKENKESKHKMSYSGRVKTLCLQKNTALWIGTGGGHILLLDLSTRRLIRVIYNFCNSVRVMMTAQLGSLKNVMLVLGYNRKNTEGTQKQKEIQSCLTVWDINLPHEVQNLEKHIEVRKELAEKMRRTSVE

Structure (SMILES) | Dmax [1] [%] | DC50 (read-out: *Endogenous WT DC50) [nM] | DC50 (read-out: Endogenous WT DC50) [nM] | Dmax (read-out: Endogenous WT Dmax) [%]
C[C@H]1CN(c2ccc3c(c2F)CN(C2CCC(=O)NC2=O)C3=O)CCN1C[C@H]1CC[C@H](OC2CCN(c3cc(-c4n[nH]c5ccc(OC6(C)CC6)cc45)ncn3)CC2)CC1 (stereo partly drawn) [Compound 346, 3-{4-fluoro-5-[(3S)-3-methyl-4-{[(1r,4r)-4-[(1-{6-[5-(1-methylcyclopropoxy)-1H-indazol-3-yl]pyrimidin-4-yl}piperidin-4-yl)oxy]cyclohexyl]methyl}piperazin-1-yl]-1-oxo-2,3-dihydro-1H-isoindol-2-yl}piperidine-2,6-dione] | 50 to 70 | < 10 |  | 
COc1c(N2CCC(O[C@H]3C[C@H](N4CC5(CCN(c6cc(-c7[nH]nc8ccc(OC9(C)CC9)cc78)ncn6)CC5)C4)C3)CC2)ccc2c1CN(C1CCC(=O)NC1=O)C2=O (stereo partly drawn) [Compound 347, 3-(4-methoxy-1-oxo-5-{4-[(1r,3r)-3-(7-{6-[5-(1-methylcyclopropoxy)-2H-indazol-3-yl]pyrimidin-4-yl}-2,7-diazaspiro[3.5]nonan-2-yl)cyclobutoxy]piperidin-1-yl}-2,3-dihydro-1H-isoindol-2-yl)piperidine-2,6-dione] | 50 to 70 | < 10 |  | 
C[C@H]1CN(c2cc(-c3n[nH]c4ccc(OC5(C)CC5)cc34)ncn2)CCN1C[C@H]1CC[C@H](OC2CCN(c3ccc4c(c3F)CN(C3CCC(=O)NC3=O)C4=O)CC2)CC1 (stereo partly drawn) [Compound 348, 3-(4-fluoro-5-(4-(((1s,4r)-4-(((S)-2-methyl-4-(6-(5-(1-methylcyclopropoxy)-1H-indazol-3-yl)pyrimidin-4-yl)piperazin-1-yl)methyl)cyclohexyl)oxy)piperidin-1-yl)-1-oxoisoindolin-2-yl)piperidine-2,6-dione] | 50 to 70 | < 10 |  | 
CC1(Oc2ccc3[nH]nc(-c4ccnc(N5CCC(O[C@H]6CC[C@H](CN7CCN(c8ccc9c(c8F)CN(C8CCC(=O)NC8=O)C9=O)CC7)CC6)CC5)c4)c3c2)CC1 (stereo partly drawn) [Compound 354, 3-(4-fluoro-5-(4-(((1r,4r)-4-((1-(4-(5-(1-methylcyclopropoxy)-1H-indazol-3-yl)pyridin-2-yl)piperidin-4-yl)oxy)cyclohexyl)methyl)piperazin-1-yl)-1-oxoisoindolin-2-yl)piperidine-2,6-dione] | 50 to 70 | < 10 |  | 
COc1c(N2CCC(N3CC(OC4CCN(c5cc(-c6[nH]nc7ccc(OC8(C)CC8)cc67)ncn5)CC4)C3)CC2)ccc2c1CN(C1CCC(=O)NC1=O)C2=O (stereo not drawn) [Compound 356, 3-[4-methoxy-5-(4-{3-[(1-{6-[5-(1-methylcyclopropoxy)-2H-indazol-3-yl]pyrimidin-4-yl}piperidin-4-yl)oxy]azetidin-1-yl}piperidin-1-yl)-1-oxo-2,3-dihydro-1H-isoindol-2-yl]piperidine-2,6-dione] | 50 to 70 | < 10 |  | 
COc1c(N2CC3(CCN(CCOC4CCN(c5cc(-c6n[nH]c7ccc(OC8(C)CC8)cc67)ncn5)CC4)CC3(F)F)C2)ccc2c1CN(C1CCC(=O)NC1=O)C2=O (stereo not drawn) [Compound 357, 3-[5-(5,5-difluoro-7-{2-[(1-{6-[5-(1-methylcyclopropoxy)-1H-indazol-3-yl]pyrimidin-4-yl}piperidin-4-yl)oxy]ethyl}-2,7-diazaspiro[3.5]nonan-2-yl)-4-methoxy-1-oxo-2,3-dihydro-1H-isoindol-2-yl]piperidine-2,6-dione] |  |  | < 10 | 50 to 70
CC1(Oc2ccc3[nH]nc(-c4ccnc(N5CCN(C[C@H]6CC[C@H](OC7CCN(c8ccc9c(c8F)CN(C8CCC(=O)NC8=O)C9=O)CC7)CC6)CC5)c4)c3c2)CC1 (stereo partly drawn) [Compound 358, 3-[4-fluoro-1-oxo-5-(4-{[(1r,4r)-4-[(4-{4-[5-(1-methylcyclopropoxy)-1H-indazol-3-yl]pyridin-2-yl}piperazin-1-yl)methyl]cyclohexyl]oxy}piperidin-1-yl)-2,3-dihydro-1H-isoindol-2-yl]piperidine-2,6-dione] |  |  | < 10 | 50 to 70
CC1(Oc2ccc3[nH]nc(-c4cc(N5CCC(O[C@H]6CC[C@H](CN7CCN(c8ccc9c(c8F)CN(C8CCC(=O)NC8=O)C9=O)CC7(C)C)CC6)CC5)ncn4)c3c2)CC1 (stereo partly drawn) [Compound 361, 3-[5-(3,3-dimethyl-4-{[(1r,4r)-4-[(1-{6-[5-(1-methylcyclopropoxy)-1H-indazol-3-yl]pyrimidin-4-yl}piperidin-4-yl)oxy]cyclohexyl]methyl}piperazin-1-yl)-4-fluoro-1-oxo-2,3-dihydro-1H-isoindol-2-yl]piperidine-2,6-dione] |  |  | < 10 | 50 to 70

Continued, values first:

Dmax [1] [%] | DC50 (read-out: *Endogenous WT DC50) [nM] | DC50 (read-out: Endogenous WT DC50) [nM] | Dmax (read-out: Endogenous WT Dmax) [%] | Structure (SMILES)
 | < 10 |  |  | COc1c(N2CCC(CN3CCN(CC4CCN(c5cc(-c6n[nH]c7cc(F)c(OC8(C)CC8)cc67)ncn5)CC4)CC3(C)C)CC2)ccc2c1CN(C1CCC(=O)NC1=O)C2=O (stereo not drawn) [Compound 349, 3-{5-[4-({4-[(1-{6-[6-fluoro-5-(1-methylcyclopropoxy)-1H-indazol-3-yl]pyrimidin-4-yl}piperidin-4-yl)methyl]-2,2-dimethylpiperazin-1-yl}methyl)piperidin-1-yl]-4-methoxy-1-oxo-2,3-dihydro-1H-isoindol-2-yl}piperidine-2,6-dione]
50 to 70 | < 10 |  |  | CC1(Oc2ccc3[nH]nc(-c4cc(N5CCC(CN6CCC7(CN(c8ccc9c(c8F)CN(C8CCC(=O)NC8=O)C9=O)C7)C(F)(F)C6)CC5)ncn4)c3c2)CC1 (stereo not drawn) [Compound 350, 3-(5-{5,5-difluoro-7-[(1-{6-[5-(1-methylcyclopropoxy)-1H-indazol-3-yl]pyrimidin-4-yl}piperidin-4-yl)methyl]-2,7-diazaspiro[3.5]nonan-2-yl}-4-fluoro-1-oxo-2,3-dihydro-1H-isoindol-2-yl)piperidine-2,6-dione]
50 to 70 | < 10 |  |  | CC1(Oc2ccc3n[nH]c(-c4cc(N5CCC(O[C@H]6C[C@H](CN7CCN(c8ccc9c(c8F)CN(C8CCC(=O)NC8=O)C9=O)CC7)C6)CC5)ncn4)c3c2)CC1 (stereo partly drawn) [Compound 351, 3-[4-fluoro-1-oxo-5-(4-{[(1r,3r)-3-[(1-{6-[5-(1-methylcyclopropoxy)-2H-indazol-3-yl]pyrimidin-4-yl}piperidin-4-yl)oxy]cyclobutyl]methyl}piperazin-1-yl)-2,3-dihydro-1H-isoindol-2-yl]piperidine-2,6-dione]
50 to 70 | < 10 |  |  | C[C@@H]1CN(c2cc(-c3n[nH]c4ccc(OC5(C)CC5)cc34)ncn2)C[C@H](C)N1C[C@H]1CC[C@H](OC2CCN(c3ccc4c(c3F)CN(C3CCC(=O)NC3=O)C4=O)CC2)CC1 (stereo partly drawn) [Compound 352, 3-[4-fluoro-1-oxo-5-(4-{[(1r,4r)-4-{[(2R,6S)-2,6-dimethyl-4-{6-[5-(1-methylcyclopropoxy)-1H-indazol-3-yl]pyrimidin-4-yl}piperazin-1-yl]methyl}cyclohexyl]oxy}piperidin-1-yl)-2,3-dihydro-1H-isoindol-2-yl]piperidine-2,6-dione]
50 to 70 | < 10 |  |  | C[C@H]1CN(C[C@H]2CC[C@H](OC3CCN(c4cc(-c5n[nH]c6ccc(OC7(C)CC7)cc56)ncn4)CC3)CC2)CCN1c1ccc2c(c1F)CN(C1CCC(=O)NC1=O)C2=O (stereo partly drawn) [Compound 353, 3-{4-fluoro-5-[(2S)-2-methyl-4-{[(1r,4r)-4-[(1-{6-[5-(1-methylcyclopropoxy)-1H-indazol-3-yl]pyrimidin-4-yl}piperidin-4-yl)oxy]cyclohexyl]methyl}piperazin-1-yl]-1-oxo-2,3-dihydro-1H-isoindol-2-yl}piperidine-2,6-dione]
50 to 70 | < 10 |  |  | C[C@H]1CN(CC2(F)CCN(CC3CCN(c4cc(-c5n[nH]c6ccc(OC7(C)CC7)cc56)ncn4)CC3)CC2)CCN1c1ccc2c(c1F)CN(C1CCC(=O)NC1=O)C2=O (stereo partly drawn) [Compound 355, 3-{4-fluoro-5-[(2S)-4-({4-fluoro-1-[(1-{6-[5-(1-methylcyclopropoxy)-1H-indazol-3-yl]pyrimidin-4-yl}piperidin-4-yl)methyl]piperidin-4-yl}methyl)-2-methylpiperazin-1-yl]-1-oxo-2,3-dihydro-1H-isoindol-2-yl}piperidine-2,6-dione]
 |  | < 10 | 50 to 70 | COc1c(N2CCC(CN3CCN(CC4CCN(c5cc(-c6n[nH]c7cc(F)c(OC8(C)CC8)cc67)ncn5)CC4)C(C)(C)C3)CC2)ccc2c1CN(C1CCC(=O)NC1=O)C2=O (stereo not drawn) [Compound 359, 3-{5-[4-({4-[(1-{6-[6-fluoro-5-(1-methylcyclopropoxy)-1H-indazol-3-yl]pyrimidin-4-yl}piperidin-4-yl)methyl]-3,3-dimethylpiperazin-1-yl}methyl)piperidin-1-yl]-4-methoxy-1-oxo-2,3-dihydro-1H-isoindol-2-yl}piperidine-2,6-dione]
 |  | < 10 | 50 to 70 | COc1c(N2CCC(O[C@H]3CC[C@H](CN4CCN(c5cc(-c6n[nH]c7cc(F)c(OC8(C)CC8)cc67)ncn5)CC4)CC3)CC2)ccc2c1CN(C1CCC(=O)NC1=O)C2=O (stereo partly drawn) [Compound 360, 3-[4-methoxy-1-oxo-5-(4-{[(1r,4r)-4-[(4-{6-[6-fluoro-5-(1-methylcyclopropoxy)-1H-indazol-3-yl]pyrimidin-4-yl}piperazin-1-yl)methyl]cyclohexyl]oxy}piperidin-1-yl)-2,3-dihydro-1H-isoindol-2-yl]piperidine-2,6-dione]
 |  | < 10 | 50 to 70 | CC1(Oc2ccc3[nH]nc(-c4cc(N5CCC(OCCN6CCC7(CN(c8ccc9c(c8F)CN(C8CCC(=O)NC8=O)C9=O)C7)C(F)(F)C6)CC5)ncn4)c3c2)CC1 (stereo not drawn) [Compound 362, 3-[5-(5,5-difluoro-7-{2-[(1-{6-[5-(1-methylcyclopropoxy)-1H-indazol-3-yl]pyrimidin-4-yl}piperidin-4-yl)oxy]ethyl}-2,7-diazaspiro[3.5]nonan-2-yl)-4-fluoro-1-oxo-2,3-dihydro-1H-isoindol-2-yl]piperidine-2,6-dione]

Source: patent publication US12559506B2, “Indazole based compounds and associated methods of use” (Arvinas Operations, Inc., priority 2021, dated 2026)
